Test results as given in PMC5560554, “Targeting of CDK9 with indirubin 3’-monoxime safely and durably reduces HIV viremia in chronically infected humanized mice” (PLoS ONE, 2017).
Values joined by “and” are separate entries in the source; they are usually repeats but may differ in a detail not shown here. Identical values can stand only once.

What was measured:
[1] = test system: primary lymphocytes; conditions: cited from earlier work
[2] = test system: HIV; set-up: method as in PMID 16284457; conditions: macrophages; read-out: EC50 for inhibition of HIV in vitro; cited from earlier work
[3] = test system: macrophages; conditions: cited from earlier work
[4] = test system: CDK9; set-up: method as in PMID 16284457; conditions: cited from earlier work
[5] = test system: HIV BaL; experiment: Antiviral activity of IM during chronic HIV infection in HSC-NSG mice; type: in vivo
Excerpt: NSG mice were humanized at the age of 2–3 days, following whole body irradiation ([…]) and hepatic injection of 1.2x10^5 human cord blood-derived CD34+ cells (Lonza, Walkersville, MD). At week 12, mice were checked for human cell reconstitution by double staining with FITC-conjugated antihuman CD45 antibody (BD Pharmingen) and APC-conjugated antimouse CD45 antibody (BD Pharmingen). Mice were considered successfully transplanted if they had ≥ 5% of human CD45+ cells in peripheral blood. Successfully transplanted mice were infected, via i.p. injection, with 15,000 TCID50 units of the CCR5-tropic HIV reference strain BaL.
Plasma HIV RNA levels were quantified by an in-house real-time RT PCR using HIV Gag primers SK38/SK39 and SYBR green dyes, as in our previous studies. The assay has a sensitivity of 150 copies HIV RNA/40μL plasma. Percentages of human CD4+ and CD8+ T cells were determined by flow cytometry analysis using fluorochrome labeled antibodies against human CD4 (clone SK3), CD8 (SK1), CD3 (clone SK7), and CD45 (clone 2D1) (BD Biosciences). Data were acquired in a BD FACSCalibur flow cytometer and analyzed using FLowJo software (v. 9.7.7). CD4/CD8 ratios were calculated and plotted using GraphPad Prism 5.0 software.
We next evaluated the antiviral activity of IM in HSC-NSG mice chronically infected with HIV. For this, 12-week old HSC-NSG mice were infected with HIV BaL. Five weeks after infection, animals initiated daily i.p. treatment with IM (5 and 20 mg/kg/day) or vehicle control for 15 weeks. Each experimental and control group had 5 mice. Viral replication was monitored by measuring HIV RNA in plasma by RT-PCR. Blood CD4/CD8 ratios were measured by Flow Cytometry. Mice treated with 5 mg/kg dose had modest, but significant, declines in plasma HIV RNA during the 15-week treatment period (Fig 2a). By the end of the study, plasma HIV RNA levels were 2.1 log10 units lower in mice treated with 5 mg/kg IM compared to controls. The CD4/CD8 ratios increased to similar levels in IM (5 mg/kg) and control groups for most of the study duration.
Fig 2 IM reduces HIV viremia in HSC-NSG chronically infected with HIV. Twelve-week old HSC-NSG mice were infected with HIV BaL. Five weeks after infection, treatment was initiated at IM doses of 0 (vehicle alone) and 5 mg/kg/day. Each group had 5 mice. Treatment was continued for 15 weeks. Blood samples collected at the indicated time points were evaluated for plasma HIV RNA levels by quantitative RT-PCR (A), and for CD4/CD8 ratios by Flow Cytometry Analysis (B). At each time point, data were tested for statistical significant differences by Mann-Whitney U tests (GraphPad Prism Software, La Jolla, CA); P < 0.05 was considered significant. Shaded boxes indicate duration of treatment.

[6] = HIV BaL, 20 mg/kg/day i.p., 5 weeks, limited data (S1 Fig)

For O=C1Nc2ccccc2/C1=C1/Nc2ccccc2/C1=N\O [IM, Indirubin 3’-monoxime], the cytotoxicity [1] is given as “not cytotoxic”, the EC50 [2] is given as 500 nM and the cytotoxicity [3] is given as “not cytotoxic”. For the same compound, the “inhibition of CDK9 relative to other CDKs” value [4] was “inhibits CDK9 more potently than other CDKs”, the “human T cells in blood” value ([5]; 20 mg/kg/day i.p., euthanized after 5 weeks of treatment) was “progressive losses in human T cells in blood” and the “CD4/CD8 ratios by the end of the study vs control” value ([5]; HIV BaL chronic infection, 5 mg/kg/day i.p. for 15 weeks) was “significantly higher”. For the same compound, the “plasma HIV RNA levels lower compared to controls by the end of the study” value ([5]; HIV BaL chronic infection, 5 mg/kg/day i.p. for 15 weeks, 5 mg/kg/day) was 2.1 log10 units and ~ 2 log10 units, the “increases in CD4/CD8 ratios” value [5, 6] was “no consistent inhibition of plasma HIV RNA or increases in CD4/CD8 ratios” and the “inhibition of plasma HIV RNA” value [5, 6] was “no consistent inhibition of plasma HIV RNA”.
